Measured values taken from US7476668B2, “Thiadiazine derivatives and use thereof as positive AMPA receptor modulators” (Les Laboratoires Servier, priority 2003, dated 2009).

Tested on: AMPA receptors (rat cerebral cortex poly(A+) mRNA expressed in Xenopus oocytes)
Assay: Excitatory currents induced by AMPA in Xenopus oocytes (two-electrode voltage-clamp)
Type: cell-based
Conditions: (S)-AMPA 10 μM; Xenopus oocytes injected with rat cortex mRNA; 20-24° C.
Description: Study of the Excitatory Currents Induced by AMPA in Xenopus Oocytes
mRNA's are prepared from cerebral cortex of male Wistar rats by the guanidinium thiocyanate/phenol/chloroform method. The poly (A^+) mRNA's are isolated by chromatography on oligo-dT cellulose and injected at a level of 50 ng per oocyte. The oocytes are incubated for 2 to 3 days at 18° C. to permit expression of the receptors and are then stored at 8-10° C.
Electrophysiological recording is carried out in a Plexiglass® chamber at 20-24° C. in OR2 medium (J. Exp. Zool., 1973, 184, 321-334) by the “voltage-clamp” method using two electrodes, a third electrode being placed in the bath serving as reference.
All the compounds are applied via the incubation medium and the electric current is measured at the end of the application period. (S)-AMPA is used in a concentration of 10 μM. For each compound studied, the concentration that doubles (EC2X) or quintuples (EC5X) the intensity of the current induced by AMPA alone (5 to 50 nA) is determined.
The compounds of the invention potentiate the excitatory effects induced by (S)-AMPA to a very considerable degree.

## CC(C)N1CNS(=O)(=O)c2sc(Cl)cc21 [Example 4, 6-Chloro-4-isopropyl-3,4-dihydro-2H-thieno[3,2-e][1,2,4]thiadiazine 1,1-dioxide]
  EC2X (concentration that doubles the intensity of the current induced by AMPA alone): 4.2 ± 0.7 µM
  EC5X (concentration that quintuples the intensity of the current induced by AMPA alone): 11 ± 3 µM

## CN1CNS(=O)(=O)c2c(Cl)sc(Cl)c21 [Example 6, 5,7-Dichloro-4-methyl-3,4-dihydro-2H-thieno[3,4-e][1,2,4]thiadiazine 1,1-dioxide]
  EC2X (concentration that doubles the intensity of the current induced by AMPA alone): 5.4 ± 2.8 µM
  EC5X (concentration that quintuples the intensity of the current induced by AMPA alone): 11.3 ± 4.9 µM
